# Measurements published in US6358885B1, “Substituted phenylheterocyclic herbicides” (Mississippi State University, priority 1992, dated 2002).
# Legend:
# cocklebur = assay: Test B preemergence/postemergence greenhouse plant response rating 0 to 10; type: in vivo, Xanthium pensylvanicum; settings: for Plant response rating, Cocklebur: 0 to 10 scale
# Procedure, shortened: (§1)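 Postemergence treatment of plants two to eighteen cm tall ran alongside preemergence treatment of planted seed, each using compound in a non-phytotoxic solvent.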
# rice [1] = assay: as above; type: in vivo, Oryza sativa; settings: for Plant response rating, Rice: 0 to 10 scale
# Procedure, shortened: as §1
# soybean = assay: as above; type: in vivo, Glycine max; settings: for Plant response rating, Soybean: 0 to 10 scale
# Procedure, shortened: as §1
# wild buckwheat = assay: as above; type: in vivo, Polygonum convolvulus; settings: for Plant response rating, Wild buckwheat: 0 to 10 scale
# Procedure, shortened: as §1
# purple nutsedge = assay: as above; type: in vivo, Cyperus rotundus; settings: for Plant response rating, Nutsedge: 0 to 10 scale
# Procedure, shortened: as §1
# bedstraw = assay: Test C preemergence/postemergence greenhouse plant response rating 0 to 100; type: in vivo, Galium aparine; settings: for Plant response rating, Bedstraw: 125 g/ha, 0 to 100 scale
# Procedure, shortened: (§2)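 Compounds in non-phytotoxic solvent went onto sandy loam before emergence (seeded one day earlier) or onto plants at the one-to-four leaf stage. Duck salad was treated via flood water (~2.5 cm, maintained) over silt loam.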
# blackgrass = assay: as above; type: in vivo, Alopecurus myosuroides; settings: for Plant response rating, Blackgrass: 125 g/ha, 0 to 100 scale
# Procedure, shortened: as §2
# chickweed = assay: as above; type: in vivo, Stellaria media; settings: for Plant response rating, Chickweed: 125 g/ha, 0 to 100 scale
# Procedure, shortened: as §2
# corn = assay: as above; type: in vivo, Zea mays; settings: for Plant response rating, Corn: 125 g/ha, 0 to 100 scale
# Procedure, shortened: as §2
# cotton = assay: as above; type: in vivo, Gossypium hirsutum; settings: for Plant response rating, Cotton: 125 g/ha, 0 to 100 scale
# Procedure, shortened: as §2
# giant foxtail = assay: as above; type: in vivo, Setaria faberii; settings: for Plant response rating, Giant foxtail: 125 g/ha, 0 to 100 scale
# Procedure, shortened: as §2
# pigweed = assay: as above; type: in vivo, Amaranthusretroflexus; settings: for Plant response rating Pigweed: 125 g/ha, 0 to 100 scale
# Procedure, shortened: as §2
# sugar beet = assay: as above; type: in vivo, Beta vulgaris; settings: for Plant response rating, Sugar beet: 125 g/ha, 0 to 100 scale
# Procedure, shortened: as §2
# velvetleaf = assay: as above; type: in vivo, Abutilon theophrasti; settings: for Plant response rating, Velvetleaf: 125 g/ha, 0 to 100 scale
# Procedure, shortened: as §2
# rice [2] = assay: Test C flood test plant response rating 0 to 100; type: in vivo, Oryza sativa
# Procedure, shortened: (§3)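 Compounds in non-phytotoxic solvent applied preemergence to sandy loam one day after planting, postemergence at the 1–4 leaf stage, or to ~2.5 cm floodwater over silt loam.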
# umbrella sedge = assay: Test C flood test plant response rating 0 to 100; type: in vivo, Cyperus difformis
# Procedure, shortened: as §3
# duck salad = assay: Test C flood test plant response rating 0 to 100; type: in vivo, Heteranthera limosa
# Procedure, shortened: as §2
# [3] = POSTEMERGENCE section, flood test, Rate 2 g/ha
# [4] = Rate 8 g/ha, under POSTEMERGENCE head (flood test species)
# [5] = Rate 31 g/ha, under POSTEMERGENCE head (flood test species)
# [6] = flood test species listed under POSTEMERGENCE, 125 g/ha, 0 to 100 scale
compound,measurement,setting,value
COCOc1cc(-c2nn3c(c2Cl)CCCC3)c(F)cc1Cl [Compound 58],"Plant response rating, Cocklebur","cocklebur; POSTEMERGENCE, Rate 50 g/ha",6
same,"Plant response rating, Cocklebur","cocklebur; PREEMERGENCE, Rate 50 g/ha",0
same,"Plant response rating (0 to 10 scale), Cocklebur","cocklebur; PREEMERGENCE, Rate 200 g/ha",9
same,"Plant response rating, Cocklebur","cocklebur; Rate 200 g/ha, POSTEMERGENCE",10
same,"Plant response rating, Rice","rice [1]; POSTEMERGENCE, Rate 50 g/ha",4
same,"Plant response rating, Rice","rice [1]; PREEMERGENCE, Rate 50 g/ha",0
same,"Plant response rating (0 to 10 scale), Rice","rice [1]; PREEMERGENCE, Rate 200 g/ha",0
same,"Plant response rating, Rice","rice [1]; Rate 200 g/ha, POSTEMERGENCE",5
same,"Plant response rating, Soybean","soybean; POSTEMERGENCE, Rate 50 g/ha",7
same,"Plant response rating, Soybean","soybean; PREEMERGENCE, Rate 50 g/ha",0
same,"Plant response rating (0 to 10 scale), Soybean","soybean; PREEMERGENCE, Rate 200 g/ha",0
same,"Plant response rating, Soybean","soybean; Rate 200 g/ha, POSTEMERGENCE",9
same,"Plant response rating, Wild buckwheat","wild buckwheat; POSTEMERGENCE, Rate 50 g/ha",10
same,"Plant response rating, Wild buckwheat","wild buckwheat; PREEMERGENCE, Rate 50 g/ha",9
same,"Plant response rating (0 to 10 scale), Wild buckwheat","wild buckwheat; PREEMERGENCE, Rate 200 g/ha",10
same,"Plant response rating, Wild buckwheat","wild buckwheat; Rate 200 g/ha, POSTEMERGENCE",10
same,"Plant response rating, Nutsedge","purple nutsedge; POSTEMERGENCE, Rate 50 g/ha",5
same,"Plant response rating, Nutsedge","purple nutsedge; PREEMERGENCE, Rate 50 g/ha",0
same,"Plant response rating (0 to 10 scale), Nutsedge","purple nutsedge; PREEMERGENCE, Rate 200 g/ha",0
same,"Plant response rating, Nutsedge","purple nutsedge; Rate 200 g/ha, POSTEMERGENCE",9
same,"Plant response rating, Bedstraw",bedstraw; POSTEMERGENCE,100
same,"Plant response rating (0 to 100), Bedstraw","bedstraw; POSTEMERGENCE, Rate 2 g/ha",60
same,"Plant response rating, Bedstraw",bedstraw; PREEMERGENCE,70
same,"Plant response rating (0 to 100), Bedstraw","bedstraw; PREEMERGENCE, Rate 2 g/ha",0
same,"Plant response rating (0 to 100), Bedstraw","bedstraw; Rate 8 g/ha, POSTEMERGENCE",100
same,"Plant response rating (0 to 100), Bedstraw","bedstraw; Rate 8 g/ha, PREEMERGENCE",10
same,"Plant response rating (0 to 100), Bedstraw","bedstraw; Rate 31 g/ha, PREEMERGENCE",50
same,"Plant response rating, Blackgrass",blackgrass; POSTEMERGENCE,85
same,"Plant response rating (0 to 100), Blackgrass","blackgrass; POSTEMERGENCE, Rate 2 g/ha",20
same,"Plant response rating, Blackgrass",blackgrass; PREEMERGENCE,70
same,"Plant response rating (0 to 100), Blackgrass","blackgrass; PREEMERGENCE, Rate 2 g/ha",0
same,"Plant response rating (0 to 100), Blackgrass","blackgrass; Rate 8 g/ha, POSTEMERGENCE",50
same,"Plant response rating (0 to 100), Blackgrass","blackgrass; Rate 8 g/ha, PREEMERGENCE",20
same,"Plant response rating (0 to 100), Blackgrass","blackgrass; Rate 31 g/ha, POSTEMERGENCE",65
same,"Plant response rating (0 to 100), Blackgrass","blackgrass; Rate 31 g/ha, PREEMERGENCE",60
same,"Plant response rating, Chickweed",chickweed; POSTEMERGENCE,100
same,"Plant response rating (0 to 100), Chickweed","chickweed; POSTEMERGENCE, Rate 2 g/ha",20
same,"Plant response rating, Chickweed",chickweed; PREEMERGENCE,70
same,"Plant response rating (0 to 100), Chickweed","chickweed; PREEMERGENCE, Rate 2 g/ha",10
same,"Plant response rating (0 to 100), Chickweed","chickweed; Rate 8 g/ha, POSTEMERGENCE",70
same,"Plant response rating (0 to 100), Chickweed","chickweed; Rate 31 g/ha, POSTEMERGENCE",100
same,"Plant response rating (0 to 100), Chickweed","chickweed; Rate 31 g/ha, PREEMERGENCE",10
same,"Plant response rating, Corn",corn; POSTEMERGENCE,65
same,"Plant response rating (0 to 100), Corn","corn; POSTEMERGENCE, Rate 2 g/ha",40
same,"Plant response rating, Corn",corn; PREEMERGENCE,30
same,"Plant response rating (0 to 100), Corn","corn; PREEMERGENCE, Rate 2 g/ha",0
same,"Plant response rating (0 to 100), Corn","corn; Rate 8 g/ha, POSTEMERGENCE",40
same,"Plant response rating (0 to 100), Corn","corn; Rate 8 g/ha, PREEMERGENCE",0
same,"Plant response rating (0 to 100), Corn","corn; Rate 31 g/ha, POSTEMERGENCE",50
same,"Plant response rating (0 to 100), Corn","corn; Rate 31 g/ha, PREEMERGENCE",0
same,"Plant response rating, Cotton",cotton; POSTEMERGENCE,100
same,"Plant response rating (0 to 100), Cotton","cotton; POSTEMERGENCE, Rate 2 g/ha",95
same,"Plant response rating, Cotton",cotton; PREEMERGENCE,40
same,"Plant response rating (0 to 100), Cotton","cotton; PREEMERGENCE, Rate 2 g/ha",0
same,"Plant response rating (0 to 100), Cotton","cotton; Rate 8 g/ha, POSTEMERGENCE",100
same,"Plant response rating (0 to 100), Cotton","cotton; Rate 8 g/ha, PREEMERGENCE",0
same,"Plant response rating (0 to 100), Cotton","cotton; Rate 31 g/ha, POSTEMERGENCE",100
same,"Plant response rating (0 to 100), Cotton","cotton; Rate 31 g/ha, PREEMERGENCE",10
same,"Plant response rating, Giant foxtail",giant foxtail; POSTEMERGENCE,100
same,"Plant response rating (0 to 100), Giant foxtail","giant foxtail; POSTEMERGENCE, Rate 2 g/ha",20
same,"Plant response rating, Giant foxtail",giant foxtail; PREEMERGENCE,100
same,"Plant response rating (0 to 100), Giant foxtail","giant foxtail; PREEMERGENCE, Rate 2 g/ha",0
same,"Plant response rating (0 to 100), Giant foxtail","giant foxtail; Rate 8 g/ha, POSTEMERGENCE",40
same,"Plant response rating (0 to 100), Giant foxtail","giant foxtail; Rate 8 g/ha, PREEMERGENCE",0
same,"Plant response rating (0 to 100), Giant foxtail","giant foxtail; Rate 31 g/ha, POSTEMERGENCE",70
same,"Plant response rating (0 to 100), Giant foxtail","giant foxtail; Rate 31 g/ha, PREEMERGENCE",60
same,Plant response rating Pigweed,pigweed; POSTEMERGENCE,100
same,"Plant response rating (0 to 100), Pigweed","pigweed; POSTEMERGENCE, Rate 2 g/ha",90
same,Plant response rating Pigweed,pigweed; PREEMERGENCE,100
same,"Plant response rating (0 to 100), Pigweed","pigweed; PREEMERGENCE, Rate 2 g/ha",0
same,"Plant response rating (0 to 100), Pigweed","pigweed; Rate 8 g/ha, POSTEMERGENCE",100
same,"Plant response rating (0 to 100), Pigweed","pigweed; Rate 8 g/ha, PREEMERGENCE",100
same,"Plant response rating (0 to 100), Pigweed","pigweed; Rate 31 g/ha, POSTEMERGENCE",100
same,"Plant response rating (0 to 100), Pigweed","pigweed; Rate 31 g/ha, PREEMERGENCE",100
same,"Plant response rating, Sugar beet",sugar beet; POSTEMERGENCE,100
same,"Plant response rating (0 to 100), Sugar beet","sugar beet; POSTEMERGENCE, Rate 2 g/ha",100
same,"Plant response rating, Sugar beet",sugar beet; PREEMERGENCE,100
same,"Plant response rating (0 to 100), Sugar beet","sugar beet; PREEMERGENCE, Rate 2 g/ha",10
same,"Plant response rating (0 to 100), Sugar beet","sugar beet; Rate 8 g/ha, POSTEMERGENCE",100
same,"Plant response rating (0 to 100), Sugar beet","sugar beet; Rate 8 g/ha, PREEMERGENCE",85
same,"Plant response rating (0 to 100), Sugar beet","sugar beet; Rate 31 g/ha, POSTEMERGENCE",100
same,"Plant response rating (0 to 100), Sugar beet","sugar beet; Rate 31 g/ha, PREEMERGENCE",90
same,"Plant response rating, Velvetleaf",velvetleaf; POSTEMERGENCE,100
same,"Plant response rating (0 to 100), Velvetleaf","velvetleaf; POSTEMERGENCE, Rate 2 g/ha",40
same,"Plant response rating, Velvetleaf",velvetleaf; PREEMERGENCE,100
same,"Plant response rating (0 to 100), Velvetleaf","velvetleaf; PREEMERGENCE, Rate 2 g/ha",0
same,"Plant response rating (0 to 100), Velvetleaf","velvetleaf; Rate 8 g/ha, POSTEMERGENCE",75
same,"Plant response rating (0 to 100), Velvetleaf","velvetleaf; Rate 8 g/ha, PREEMERGENCE",40
same,"Plant response rating (0 to 100), Velvetleaf","velvetleaf; Rate 31 g/ha, POSTEMERGENCE",80
same,"Plant response rating (0 to 100), Velvetleaf","velvetleaf; Rate 31 g/ha, PREEMERGENCE",100
same,"Plant response rating (0 to 100), Rice Japonica",rice [2]; [3],0
same,"Plant response rating (0 to 100), Rice Japonica",rice [2]; [4],0
same,"Plant response rating (0 to 100), Rice Japonica",rice [2]; [5],0
same,Plant response rating Rice Japonica,rice [2]; [6],50
same,"Plant response rating (0 to 100), Umbrella sedge",umbrella sedge; [3],25
same,"Plant response rating (0 to 100), Umbrella sedge",umbrella sedge; [4],30
same,"Plant response rating (0 to 100), Umbrella sedge",umbrella sedge; [5],70
same,Plant response rating Umbrella sedge,umbrella sedge; [6],100
same,"Plant response rating (0 to 100), Duck salad",duck salad; [3],0
same,"Plant response rating (0 to 100), Duck salad",duck salad; [4],20
same,"Plant response rating (0 to 100), Duck salad",duck salad; [5],80
same,Plant response rating Duck salad,duck salad; [6],85
